Literature values as cited in patent publication US20080038252A1, “Histamine-Containing Composition for the Treatment of Allergic Diseases” (priority 2005, published 2008).

Tested on: allergy animal model
Conditions: same amount as in the complex, administered alone to the allergy animal model (Yoshii)

For NCCc1c[nH]cn1 [histamine], the anti-inflammatory effect is given as “not produced”.
